{"source": "paper PMC5078989", "about": "“Targeted inhibition of the COP9 signalosome for treatment of cancer” (Nature Communications, 2016)", "key": {"SU-DHL-1 xenografts": {"system": "SU-DHL-1 xenografts", "assay": "SU-DHL-1 xenograft experiment in SCID-bg mice", "format": "in vivo", "conditions": "14 days; for T/C value (tumour volume of treated versus control): last day of treatment", "procedure": "For the in vivo study, subcutaneous SU-DHL-1 xenografts were grown in SCID-bg mice and CSN5i-3 was administered orally at doses of 50 mg kg^−1 BID and 100 mg kg^−1 QD over a period of 14 days. […] Tumours were excised at the end of the study and the effect of compound treatment assessed on the pharmacodynamics markers, neddylated Cul1 and Skp2. […] All animal experiments were approved by the Kantonales Veterinäramt Basel-Stadt and were conducted in accordance with the Eidgenössisches Tierschutzgesetz and the Eidgenössische Tierschutzverordnung. SU-DHL-1 cells (1 × 10^7; DSMZ) were implanted subcutaneously into SCID-bg female 7–9-week-old mice (Taconic) and developing tumours were propagated once before subcutaneous transplantation for efficacy studies. Treatment was initiated when tumours reached 150–200 mm^3 volume. […] Randomization was conducted by using an internal computer software (Indigo). CSN5i-3 was formulated in 100 mM citrate buffer pH 3, PEG300, Kolliphor HS15, 1 N HCl (56:30:10:4%w/w). Tumour response is reported as percentage change in tumour volume at the last day of treatment relative to start of treatment. […] At day 10 of treatment blood, samples were taken and concentrations of CSN5i-3 were determined at indicated time points post dose using ultra-high-pressure liquid chromatography/tandem MS. At the end of treatment, tumours were excised and snap frozen in liquid nitrogen. Frozen tumours were pulverized using CryoPrep (Covaris Inc.) and protein lysates were prepared from tumour powder for immunoblot analysis."}, "SU-DHL-1 cells": {"system": "SU-DHL-1 cells", "assay": "Immunoblotting for PARP and caspase 3 in SU-DHL-1 cells", "format": "cell-based, human", "conditions": "SU-DHL-1, 1 μM, 24 h or 48 h", "procedure": "Cells were maintained in a humidified incubator at 37 °C and 5% CO2. […] All cells were negatively tested for mycoplasma contamination either by the vendor or in house. […] If not stated otherwise, cells were harvested after incubation for 16 h and subjected to SDS-PAGE and western blotting. The RNA interference experiment was performed with CSN5 stealth siRNA (#HSS116986) and stealth negative control siRNA (#12935-400) (Invitrogen), which were transfected at 10 nM into HCT116 cells using […] (Qiagen) according to the manufacturer's protocols. Seventy-two hours after transfection, cells were harvested and subjected to SDS-PAGE and western blotting (see Supplementary Fig. 7 for all western blottings performed). […] Cells from longer compound incubations were also lysed in RIPA buffer, which allows the protein concentration to be determined by BCA Protein Assay Kit (Pierce). Proteins were separated by SDS-PAGE using 4-20% Tris-Glycine Gels (Invitrogen) and subsequently transferred to polyvinylidene difluoride membranes using a Trans-Blot Turbo System (BioRad). […] Horseradish peroxidase-conjugated secondary antibodies (1:3,000) were purchased from Promega AG and bound antibody was detected by enhanced chemiluminescence (Pierce). page 5: Supplementary Figure 5 a b 0 Cul1-Nedd8 Cul1-Nedd8 Cul1 -20 Cul1 Fbxo7 -40 Fbxo7 -60 Actin -80 Actin CDK6 -100 CDK6 […] […]"}, "NCI-H2030 cells": {"system": "NCI-H2030 cells", "assay": "Cell viability assay (CellTiter-Glo), NCI-H2030", "format": "cell-based, human", "conditions": "NCI-H2030, 72 h; cytostatic", "procedure": "Cells were maintained in a humidified incubator at 37 °C and 5% CO2. […] All cells were negatively tested for mycoplasma contamination either by the vendor or in house. […] If not stated otherwise, cells were harvested after incubation for 16 h and subjected to SDS-PAGE and western blotting. The RNA interference experiment was performed with CSN5 stealth siRNA (#HSS116986) and stealth negative control siRNA (#12935-400) (Invitrogen), which were transfected at 10 nM into HCT116 cells using […] (Qiagen) according to the manufacturer's protocols. Seventy-two hours after transfection, cells were harvested and subjected to SDS-PAGE and western blotting (see Supplementary Fig. 7 for all western blottings performed). A standardized CellTiter-Glo Assay (Promega #G7570) based on the quantification of ATP was applied according to the manufacturer's protocol to measure the amount of viable cells in culture. In brief, cells were seeded into 384-well plates at optimal density for each cell line. After 4 h, compounds were added at different concentrations in growth medium and incubated for another 72 h in a humidifying chamber at 37 °C and 5% CO2. Eventually, equal amounts of CellTiter-Glo reagent were added directly to the cells, incubated for 15 min and luminescence was recorded using PHERAstar plate reader (BMG LABTECH GmbH)."}, "[1]": {"conditions": "50 mg kg^−1 BID and 100 mg kg^−1 QD oral"}}, "data": [{"smiles": "CC(C)n1nc(C(F)F)cc1C(=O)Nc1ccc([C@H]2[C@@H](O)CCCc3cncn32)c(-c2ccccc2)c1", "note": "[CSN5i-3, 3-(Difluoromethyl)-N-(6-((5S,6S)-6-hydroxy-6,7,8,9-tetrahydro-5H-imidazo[1,5-a]azepin-5-yl)-[1,1′-biphenyl]-3-yl)-1-isopropyl-1H-pyrazole-5-carboxamide]", "values": [{"measurement": "tolerability based on body weight", "setting": "SU-DHL-1 xenografts; [1]", "value": "well tolerated"}, {"measurement": "tumour growth outcome", "setting": "SU-DHL-1 xenografts; [1]", "value": "Tumour stasis"}, {"measurement": "T/C value (tumour volume of treated versus control)", "setting": "SU-DHL-1 xenografts; 50 mg kg^−1 BID oral", "value": 22, "unit": "%"}, {"measurement": "T/C value (tumour volume of treated versus control)", "setting": "SU-DHL-1 xenografts; 100 mg kg^−1 QD oral", "value": 25, "unit": "%"}, {"measurement": "apoptosis markers (cleaved PARP, cleaved caspase 3)", "setting": "SU-DHL-1 cells", "value": "triggered the formation of cleaved PARP and cleaved caspase 3"}, {"measurement": "AMAX", "setting": "NCI-H2030 cells", "value": "about −50%"}]}]}
